IC50 data for 60 compounds are collected here from the supplement of paper PMC3493320.

For the test, the system named is NCI-H295R. The test is described as follows: IC50 (antiproliferative, ATP content). The settings on record: 48 h. A digest of the protocol: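 Cell viability of adrenocortical carcinoma cells was assessed as ATP by CellTiter-Glo luminescence. Cells at 1500 per well in 1536-well plates, in serum-free DMEM with ITS, received compounds by pin transfer at 8 final concentrations (0.6 nM–46 µM) after overnight culture and were then held 48 h at 37 °C, 5% CO2. IC50 was calculated by logistic fitting against vehicle and positive-control wells, compounds with no concentration response being recorded as above the top dose.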
Consider `CN(C)[C@@H]1C(O)=C(C(=O)NCN2CCCC2)C(=O)[C@@]2(O)C(O)=C3C(=O)c4c(O)cccc4[C@@](C)(O)C3C[C@@H]12.Cl` (stereo not given in full), for which the half-maximal inhibitory concentration (IC50) (usually the concentration needed to halve the response being measured) was above 46 µM. In turn, `C[C@]12CC[C@@H]3c4ccc(O)cc4CC[C@H]3[C@@H]1C[C@@H](O)[C@H]2O` yielded an IC50 above 46 µM.

As for `O=c1[nH]c(=O)n([C@H]2C[C@H](O)[C@@H](CO)O2)cc1Br`, the IC50 was above 46 µM. Under `CC[C@H](C)[C@H](N)C1=N[C@H](C(=O)N[C@@H](CC(C)C)C(=O)N[C@H](CCC(=O)O)C(=O)N[C@H](C(=O)N[C@H]2CCCCNC(=O)[C@H](CC(N)=O)NC(=O)[C@@H](CC(=O)O)NC(=O)[C@H](Cc3cnc[nH]3)NC(=O)[C@@H](Cc3ccccc3)NC(=O)[C@H]([C@@H](C)CC)NC(=O)[C@@H](CCCN)NC2=O)[C@@H](C)CC)CS1` stands above 46 µM; under `CC(C)N(CCC(C(N)=O)(c1ccccc1)c1ccccn1)C(C)C` (stereo not given), above 46 µM. `CCCCOc1cc(C(=O)NCCN(CC)CC)c2ccccc2n1` had a concentration for half-maximal inhibition (IC50) above 46 µM. For `COc1ccccc1N1CCN(CCCCNC(=O)c2ccc(-c3ccc(C(C)=O)cc3)cc2)CC1`, the IC50 was above 46 µM. `CNC(=O)c1c(I)c(C(=O)NCC(=O)Nc2c(I)c(C(=O)O)c(I)c(C(=O)NCCO)c2I)c(I)c(N(C)C(C)=O)c1I`: the IC50 is above 46 µM.

Take `COc1cc(C(=O)NCc2ccc(OCCN(C)C)cc2)cc(OC)c1OC.Cl`: the IC50 was above 46 µM.

On to `[C@@]2\1(\C(=C/C(/C=C/1)=O)[C@H](C[C@@H]4[C@@H]2[C@H](C[C@@]3([C@](C(COC(=O)C)=O)(O)CC[C@H]34)C)O)C)C`, for which the IC50 was above 46 µM. In the case of `CCN(CC)C(=S)[S-].[Na+]`, the IC50 is above 46 µM. Take `Cc1c(Cn2ccnc2)c2ccccc2n1CCC(=O)O`: the IC50 is above 46 µM. For the compound `CC(=O)N[C@@H](CC(C)C)C(=O)O`, the IC50 is above 46 µM. With `O=[N+]([O-])c1ccc([As](=O)(O)O)cc1` the figure was above 46 µM; with `NCCc1cnc[nH]1`, above 46 µM; with `CC(C)[C@@H](N)C(=O)O`, above 46 µM. Turning to `CCOC(=O)c1ccc(O)cc1`, the IC50 is above 46 µM.

The compound `C#C[C@]1(O)CC[C@H]2[C@@H]3CCc4cc(OC)ccc4[C@H]3CC[C@@]21C` gave a half-maximal inhibitory concentration (IC50) above 46 µM. In turn, `O=c1[nH]c2cc(C(F)(F)F)c(N3CCOCC3)cc2n(CP(=O)(O)O)c1=O` registered an IC50 above 46 µM. `CCOC(=O)n1ccn(C)c1=S` displayed a half-maximal inhibitory concentration (IC50) above 46 µM. With `Cl.N=C(N)n1cccn1` the figure was above 46 µM; with `NS(=O)(=O)c1cc2c(cc1C(F)(F)F)NCNS2(=O)=O`, above 46 µM; with `CN1C[C@@H]2C[C@H]1CN2c1cc2c(cc1F)c(=O)c(C(=O)O)cn2C1CC1`, above 46 µM. With `COC(c1ccccc1)(c1ccccc1)[C@H](Oc1nc(C)cc(C)n1)C(=O)O` the figure was above 46 µM. Under `O=S1(=O)OC(c2ccc(O)cc2)(c2ccc(O)cc2)c2ccccc21` stands above 46 µM; under `Cn1c(=O)c2c(ncn2CCO)n(C)c1=O`, above 46 µM; under `Cl.Nc1c(Br)cc(Br)cc1CN[C@H]1CC[C@H](O)CC1`, above 46 µM. `CN1CCCCC1CCN1c2ccccc2Sc2ccc(S(C)=O)cc21` (stereo not given) came in with a concentration for half-maximal inhibition (IC50) above 46 µM.

Compound `O=C1CCC(c2ccccc2)(C2CCN(Cc3ccccc3)CC2)C(=O)N1` (stereo not given) showed an IC50 above 46 µM.

Compound `O=C([O-])[C@H](O)[C@@H](O)[C@H](O)[C@H](O)CO.O=C([O-])[C@H](O)[C@@H](O)[C@H](O)[C@H](O)CO.[Ba+2]` gave a 50% inhibitory concentration (IC50) above 46 µM. Under `CCOC(=O)c1c(N)sc2c1CCN(Cc1ccccc1)C2.Cl` stands above 46 µM; under `O=C1CN(N=Cc2ccc(-c3ccc([N+](=O)[O-])cc3)o2)C(=O)[N-]1.[Na+]`, above 46 µM.

Consider `COc1cc2c(cc1OC)[C@@H](c1ccccc1)CN(C)CC2.O=C(O)/C=C\C(=O)O`, for which the IC50 is above 46 µM.

`CCN1CCCC1=O`: the IC50 is above 46 µM. Compound `C/C(=C(/CCOP(=O)(O)O)SC(=O)c1ccccc1)N(C=O)Cc1cnc(C)nc1N` had an IC50 above 46 µM.

Consider `COc1ccc2c(c1)C(=O)N(CCc1ccc(S(=O)(=O)NC(=O)NC3CCCCC3)cc1)C(=O)C2(C)C`, for which the half-maximal inhibitory concentration (IC50) is above 46 µM. In turn, `O=C([C@H](CC1=CN=CN1)N[C@]([C@H](CC2)NC2=O)=O)N(CCC3)[C@@H]3[C@](N)=O` had an IC50 above 46 µM.

As for `NCCCC[C@H](N)C(=O)O`, the IC50 is above 46 µM. Consider `N=C(N)NCC1COc2ccccc2O1` (stereo not given), for which the IC50 was above 46 µM. With `O=C1[C@@](CC2)(C)[C@@](C)(C)[C@H]2C1` the figure was above 46 µM; with `Cl.Cl.O=C(O)COCCN1CCN(C(c2ccccc2)c2ccc(Cl)cc2)CC1` (stereo not given), above 46 µM; with `COc1ccc(C(=O)c2ccc(C)cc2)c(O)c1`, above 46 µM. With `NCCCC(O)(P(=O)([O-])O)P(=O)(O)O.O.O.O.[Na+]` the figure was above 46 µM. With `Cl.N=C(N)NC(=O)Cc1c(Cl)cccc1Cl` the figure was above 46 µM; with `O=C(N[C@@H](CO)C(N[C@H](C(N[C@H](COC(C)(C)C)C(N[C@@H](CC(C)C)C(N[C@@H](CCCNC(N)=N)C(N6[C@H]([C@@](NNC(N)=O)=O)CCC6)=O)=O)=O)=O)CC4=CC=C(O)C=C4)=O)[C@@H](NC([C@@H](N[C@@]([C@@H](N5)CCC5=O)=O)CC3=CNC=N3)=O)CC1=CNC2=C1C=CC=C2.O=C(C)O`, above 46 µM.

In turn, `Cl.Nc1ccn([C@@H]2O[C@H](CO)[C@@H](O)C2(F)F)c(=O)n1` came in with an IC50 above 46 µM. Under `CC[C@H]1OC(=O)[C@H](C)[C@@H](O[C@H]2C[C@@](C)(OC)[C@@H](O)[C@H](C)O2)C(C)[C@@H](O[C@@H]2O[C@H](C)C[C@H](N(C)C)[C@H]2O)[C@](C)(OC)C[C@@H](C)C(=O)[C@H](C)[C@@H](O)[C@]1(C)O` (stereo not given in full) stands above 46 µM. `[H][C@]1(CC3)C[C@@H](OC(C(C5=CC=CC=C5)(O)C4=CC=CC=C4)=O)C[C@]3([H])[N@+]21CCCC2.[Cl-]` displayed an IC50 above 46 µM. Under `Clc1cccc(N2CCNCC2)c1` stands above 46 µM.

Consider `Cc1cc(O)c(C(C)C)cc1Cl`, for which the IC50 is above 46 µM.

With `Cc1c(C)c2c(c(C)c1O)CC[C@@](C)(CCC[C@H](C)CCC[C@H](C)CCCC(C)C)O2`, the IC50 is above 46 µM. Under `Cc1cccc(C)c1NC(=O)c1ccccc1C(=O)O` stands above 46 µM.

As for `CCCC(=O)[O-].[Na+]`, the concentration for half-maximal inhibition (IC50) was above 46 µM.

The compound `Cc1cc(OI)c(C(C)C)cc1-c1cc(C(C)C)c(OI)cc1C` gave an IC50 above 46 µM. In the case of `CC(=O)Nc1ccc(S(=O)(=O)Nc2ccc([N+](=O)[O-])cc2)cc1`, the IC50 is above 46 µM.

In turn, `Cc1ccccc1C(OCCN(C)C)c1ccccc1.O=C(O)CC(O)(CC(=O)O)C(=O)O` (stereo not given) gave an IC50 above 46 µM.

As for `OC[C@H]1O[C@@H](O[C@@H]2[C@@H](CO)O[C@](O)(CO)[C@H]2O)[C@H](O)[C@@H](O)[C@H]1O`, the IC50 is above 46 µM. Under `O=C(NC(Cc1cc(=O)[nH]c2ccccc12)C(=O)O)c1ccc(Cl)cc1` (stereo not given) stands above 46 µM; under `CCN(CC)CCNC(=O)c1cc(S(C)(=O)=O)ccc1OC.Cl`, above 46 µM; under `COc1ccc(CN(CCN(C)C)c2ncccn2)cc1.Cl`, above 46 µM.
